According to a melting point compilation (Tetko et al.; mined from patent text by program, amines drawn as free bases though some values may be those of a salt):

Row | melting point [°C] | Structure (SMILES)
1 | 156 to 158 | FC(F)(F)c1ccc(Cl)c(-c2cccn3nc(Cl)nc23)c1
2 | 41 to 42 | CC1(C)C2CCC1(C)C(O)(c1ccccc1)C2 (centres undefined)
3 | 139 to 141 | CN(C)C(=O)Nc1ccc(Cl)c(N)n1
4 | 191 to 192 | NC(=O)CNC(=O)c1ccc(-c2cccc3cc(Cc4cccc(C(F)(F)F)c4)sc23)nc1
5 | 180 to 182 | COc1cc(C=Cc2cc(OC)c(OC)c(OC)c2)cc(Br)c1OC
6 | 172 | CC(=O)Nc1cc2c(cc1C#N)CCC2
7 | 92 to 93 | CCOC(=O)COc1cccc2c1OCC(Br)C2=O (centres undefined)
8 | 73 to 74 | COc1ccc2c(c1OC)CCC2=O
9 | 69 to 70 | CC(C)C[C@H]1COCC(=O)N1
10 | 160 to 168 | OC(CCC(c1ccccc1)c1ccccc1)c1cncn1Cc1ccccc1 (centres undefined)
11 | 62 to 64 | O=P(CN(O)Cc1ccccc1)(OCc1ccccc1)OCc1ccccc1
12 | 233 | FC(F)(F)COc1cc(-c2cc(C(F)(F)F)n3cnc(-c4ccncc4)c3n2)ccc1C(F)(F)F
13 | 119 to 120 | C=C1CCN(c2ccc(Cl)cc2)C1=O
14 | 160 to 162 | O=[N+]([O-])c1cn2c(n1)OC[C@@H](OCC#Cc1ccc(Br)cc1)C2
15 | 80 | COc1ccc(CC(=O)NCCc2cccc(OC)c2OC)cc1OC
16 | 90 | CC(=O)SCSc1nnn[nH]1
17 | 62 | CCOC(=O)CC(=CNc1ncccc1C)C(=O)OCC
18 | 144 to 146 | COC(=O)c1ccccc1Nc1c(OC)ccc2ccccc12
19 | 113 to 114 | COC(=O)C#CCOC(N)=O
20 | 135 to 137 | CN1CCN(Cc2ccc(-c3nc4cc([N+](=O)[O-])ccc4o3)s2)CC1
21 | 87 | c1ccc2c(c1)CSO2
22 | 200 to 207 | COC(=O)c1ccc2c(c1)C(=O)N(c1ccccc1)C2=O
23 | 125 | N#Cc1ccc2[nH]cc(Cc3cccnc3)c2c1
24 | 242 to 244 | CCOC(=O)C1C=Nc2c(ccc3cccnc23)C1=O (centres undefined)
25 | 142 to 143 | O=S(=O)(Nc1ccc2c(OCc3cccc(-c4cc(Cl)cc(Cl)c4)c3)cccc2c1)C(F)(F)F
26 | 244 to 245 | OCC1CC(O)C(n2cnc3cc(Cl)c(Cl)cc32)C1 (centres undefined)

Row | melting point [°C] | Structure (SMILES)
27 | 207 to 208 | COc1ccc(N2CCN(Cc3ccc(NC(=O)/C=C/c4cccc(-c5ccc(C)cc5)c4)cc3)CC2)cc1
28 | 171 to 172 | O=C(Cc1noc2ccccc12)NS(=O)(=O)c1ccccc1
29 | 123 to 125 | COc1ccc2c3c(c(=O)oc2c1)CN(CC(C)=O)CC3
30 | 108 to 110 | CC(=O)c1cc(F)c(OCCOc2ccc3ccccc3c2)c(F)c1
31 | 81 to 83 | COc1ccc(/C=C/C(=O)N(C)CC(O)CO)cc1 (centres undefined)
32 | 256 to 258 | CC1(C)C(=O)Nc2ccc(C3(C#N)C=CC=N3)cc21 (centres undefined)
33 | 160 | CC(C)=CCN1Cc2c(Cl)ccc3[nH]c(=S)n(c23)C[C@@H]1C
34 | 232 to 234 | CCCCNc1cc(C(=O)O)cc(S(N)(=O)=O)c1Sc1ccc(N)cc1
35 | 95 to 96 | OCCCc1ccc(OCc2coc(/C=C/c3ccccc3)n2)cc1
36 | 240 to 242 | CN1C(=O)CC(=O)N(C)c2ccccc21
37 | 153 to 157 | CC[C@@H]1COC(=O)N1c1nc(-c2ccc(C#N)cc2)cs1
38 | > 255 | O=c1[nH]c(C(F)(F)F)nc2ccc(I)cc12
39 | 200 to 201 | CCOc1ncc(C(C)=O)cc1-c1nc2c(CC)n(CC3CC3)nc2c(=O)[nH]1
40 | 63 to 65 | CCc1c(-c2ccc(OCc3ccccc3)cc2)c2cc(COCCCN(C)C)c3cccc1n32
41 | 204 | CC(C)C(=O)N[C@H]1CC[C@H](CCN2CCN(c3nccc4c3OCC4)CC2)CC1
42 | 169 to 170 | COc1cncnc1N1CCN(CCCc2csc3ccc(C(N)=O)cc23)CC1
43 | 82 | CC(=O)N(C)CCc1coc2ccc3c(c12)CCCO3
44 | 70 to 72 | CCCCCCCCCCCCCCCCCCOP(=O)(Cc1c(C)cc(C(C)(C)C)c(O)c1C)OCCCCCCCCCCCCCCCCCC
45 | 210 to 211 | CSc1cc(C(C)(C)C)c(O)c(-c2nc3ccc(S(=O)(=O)C(F)(F)F)cc3[nH]2)c1C
46 | 159 to 160 | OCc1ccc(OCc2ccc(-c3ccccc3)cn2)cc1
47 | 131 | CN(C)C(=O)NC1(Cc2ccccc2)CCN(Cc2ccccc2)CC1
48 | 170 to 172 | Nc1nc(C(=NOCC(=O)NOCc2ccccc2)C(=O)O)cs1
49 | 155 to 157 | CCCCn1c(=O)[nH]c2c(Cl)cc(OC)c(OC)c2c1=N
50 | 112 | O=[N+]([O-])c1cc2c(Cl)ncnc2s1
51 | 278 to 280 | O=C(O)c1nc2cc(N3CCN(Cc4ccccc4)CC3)c([N+](=O)[O-])cc2[nH]c1=O
52 | 180 to 230 | Cc1cccc2c(Cl)nc(Cl)nc12

Row | melting point [°C] | Structure (SMILES)
53 | 148 | CC(C)C(C(=O)Nc1n[nH]c(=S)s1)N(C(=O)OCc1ccccc1)c1ccccc1F (centres undefined)
54 | 117 to 118 | CN(C(=O)C(F)(F)F)C(C(=O)O)c1ccc(Cl)cc1 (centres undefined)
55 | 88 | CCc1cc2c(NCCc3ccccc3)ccnc2s1
56 | 374 to 376 | CC(C)Cn1c(=O)[nH]c2c(C(N)=O)nc(-c3cccc(O)c3)nc21
57 | 149 to 151 | CCCCC1(CCCC)CCc2c(OCc3ccc4ccccc4n3)ccc(C)c2C1O (centres undefined)
58 | 203 to 204 | CN(C)c1ccc(-c2cc3nccnc3[nH]2)cc1CCCO
59 | 55 to 57 | Cn1nnnc1SCCl
60 | 164 to 166 | N#CNC(=O)C12CC3CC(CC(C3)C1)C2
61 | 205 to 206 | O=C(c1ccc(F)cc1)c1cccc(C#Cc2cccc(C(=O)c3ccc(F)cc3)c2)c1
62 | 190 to 192 | CCOc1ccccc1[C@H]1O[C@H](CC(=O)O)C(=O)N(CC(C)C)c2ccc(Cl)cc21 (relative stereo)
63 | 114 to 117 | COC(=O)CCc1cc(C(=O)c2ccc(OC)cc2)c(OC)cc1OC
64 | 135 | NC[C@H]1CNc2cccc(-c3ccccc3Cl)c2O1
65 | 67 to 70 | CC(O)c1ccc(C2(C(C)(C)C)OCCO2)cc1 (centres undefined)
66 | 140 to 143 | Cc1ccc(C2CC(C(F)(F)F)=NN2c2ccc(S(N)(=O)=O)cc2)cc1 (centres undefined)
67 | 153 to 155 | CCC(=O)N(C)N1CC(C)(C)C(=O)c2ccc(S(=O)(=O)c3ccccc3)cc21
68 | 91.3 | FC(F)Oc1cccc(C=C2c3ccccc3CCc3ccccc32)c1
69 | 103 to 104 | Cc1n[nH]c2c1C(=O)CC(C)(C)C2
70 | 268 to 270 | CCOC(=O)c1cnc2c(N)c(Cl)c(F)cc2c1O
71 | 159 | CC(=NNc1ccccc1)c1ccc(O)cc1O
72 | 228 to 229 | Cc1ccc(-c2c(C)c(NC(=O)CC(C)(C)C)c(C)c3c2OCC3c2ccc(C(C)C)cc2)nc1 (centres undefined)
73 | 110 to 111 | COC[C@H](C1CC1)n1cc(Cl)nc(Cl)c1=O
74 | 255 to 258 | O=C(O)CCc1c(-c2cc(Cl)ccc2O)c2cc(C(F)(F)F)ccc2[nH]c1=O
75 | 158 to 160 | N#Cc1cn(C[C@@H]2CN(c3ccc(N4CCC5(CC4)OCCO5)c(F)c3)C(=O)O2)nn1
76 | 147 | CC1(c2cc(N3C(=O)C4=C(CCCC4)C3=O)c(F)cc2Cl)OCCO1
77 | 139 to 144 | NS(=O)(=O)c1ccc(-n2nc(CCCNC(=O)NC34CC5CC(CC(C5)C3)C4)cc2-c2ccccc2)cc1
78 | 117 to 119 | CCOc1ccc(C=C2N=C(C)OC2=O)cc1OCC

Row | melting point [°C] | Structure (SMILES)
79 | 107 | CC(C)(C)c1cc2sccc2c(C(C)(C)C)c1O
80 | 161 to 162 | CCc1cccc(-c2nc3ccccc3[nH]2)n1
81 | 246 to 248 | Cc1c(N2C[C@@H](NC(=O)C(F)(F)F)C3(CC3)C2)c(F)c(N)c2c(=O)c(C(=O)O)cn(C3CC3)c12
82 | 191 to 193 | CNc1nc(C)c(-c2ccnc(Nc3ccc(Cl)c(CO)c3)n2)s1
83 | 267 to 268 | Cc1ccc2nc(NC(=O)c3ccc(C(C)(C)CCc4noc(=O)[nH]4)cc3)cn2c1
84 | 114 | CCOC(=O)c1ccc(-c2ccc3c(c2)C(Nc2ccc(Cl)cc2)CC(C)N3C(C)=O)cc1 (centres undefined)
85 | 269 to 275 | O=C(O)c1csc2c1OC(c1ccccc1)(C1CCCCC1)CC2=O (centres undefined)
86 | 126 to 129 | CN(C)CN(C(=O)c1ccc(Cl)cc1Cl)c1ccc(C(=O)N2Cc3cccn3Cc3ccccc32)cc1
87 | 117 to 119 | CC(C)OC(=O)c1cc(NC(=O)c2ccccc2)c(F)cc1Cl
88 | 228 | CNC(=S)C1(c2cccnc2)CCCCS1=O (centres undefined)
89 | 155 to 157 | CNS(=O)(=O)Cc1cc(Br)c(N)c(Br)c1
90 | 101 to 102 | CS(=O)(=O)OCCNc1cc(Cl)ccc1[N+](=O)[O-]
91 | 33 to 34 | CCOC(=O)[C@@H](N)Cc1ccc([N+](=O)[O-])cc1I
92 | 210 to 212 | Cc1c(N2C(=O)C=CC2=O)cccc1N1C(=O)C=CC1=O
93 | 168 to 170 | Cc1nnc2cccc(-c3ccccn3)n12
94 | 159 to 161 | CCOC(=O)Nc1c(C(=O)c2ccccc2)[nH]c2cc(Cl)ccc12
95 | 133 to 135 | Cc1oc(-c2ccccc2)nc1CN(C)Cc1ccc(C[C@@H](C(=O)O)n2cccc2)cc1
96 | 119 to 120 | CC(C)(CCCCCCCc1c(-c2ccccc2)nc(-c2ccccc2)n1-c1ccccc1)C(=O)O
97 | > 210 | O=C1N(CO)c2cccc(Cl)c2C1(CO)c1cc2c(cc1O)OCO2 (centres undefined)
98 | 235 to 236 | CC(=O)N1CCN(c2cc3c(c(NCc4ccccc4)c2F)c(=O)c(C(=O)O)cn3C2CC2)CC1C (centres undefined)
99 | 195 to 197 | COc1cc2c(cc1C)OC1(CC2(C)C)CC(C)(C)c2cc(OCC(=O)O)c(C)cc2O1 (centres undefined)
100 | 222 to 223 | COc1ccc(C(=O)Nc2ccccc2)cc1NCc1ccc(-c2ccccc2)cc1
101 | 102 | NCCN1CCC(=C2c3ccccc3C=Cc3ccccc32)CC1
102 | 220 to 222 | CCOC(=O)C=C(C)C=CC=C(C)C=Cc1c(C)c(Cl)c(C)c(Cl)c1C

Row | Structure (SMILES) | melting point [°C]
103 | O=C1CC(Cc2cccc(Cl)c2)CN1 (centres undefined) | 117 to 119
104 | O=c1c2c(OCC3CS3)cc(OCC3CS3)cc2oc2ccc3ccccc3c12 (centres undefined) | 225 to 226
